Experiments:
[1] = Liver microsomal stability, mouse; format: in vitro ADME; conditions: male, CD-1, pH 7.4, mouse liver microsomes, five time points over 1 h, read-out: MLM CLint
Method: Compounds 1 ([…] DMSO stock solutions) were diluted to 2.5 mM with DMSO and again to 0.5 mM with MeCN to give a final solution containing a 0.5 mM compound in 1:4 DMSO/MeCN. Liver microsomes from male CD-1 mice were sourced from Xenotech (Kansas City, KS, USA). A reaction plate was prepared by adding 691.25 μL and prewarmed (37 °C) microsomal solution (0.63 mg/mL protein and 1.3 mM EDTA in potassium phosphate buffer made by mixing ~250 mL of 100 mM K2HPO4 with ~65mL of KH2PO4 until the buffer reaches a pH of 7.4) to an empty well of a 96-well plate and maintained at 37 °C. […] The stability of the compound was calculated as the percentage of the unchanged parent remaining at T = 30 min relative to the peak area at T = 0 min.
To determine CLint, aliquots of 50 μL were taken from the reaction solution at 0, 15, 30, 45, and 60 min. […] Peak areas were determined from extracted ion chromatograms and the slope value, k, was determined by linear regression of the natural logarithm of the remaining percentage of the parent drug vs. incubation time curve. The intrinsic clearance (CLint in μL/min/mg) was calculated using the relationship CLint = kV/N where V is the incubation volume and N is the amount of protein per well.

Multi-dose PK study = format: in vivo; conditions: Balb/c mice, 30 mg/kg p.o. every 12 h; total plasma concentration factored by fu
Method: In the multi-dose PK study, three male Balb/c mice (6–8 weeks old, 20–30 g) were dosed via oral (p.o.) administration of four doses of compound 2 (30 mg/kg) as a 10 mL/kg volume of 3 mg/mL solution in DMSO/PEG-400/Water (v/v/v, 10:30:60) every 12 h. At 2, 6, 12, 14, 24, 26, 36, 38, and 48 h after the first dose, 0.025 mL of blood was collected from the dorsal metatarsal vein at each time point. Each blood sample was transferred into a plastic microcentrifuge tube containing EDTA-K2 anticoagulant and mixed well with the anticoagulant, then placed on ice prior to centrifugation at 4000× g for 5 min at 4 °C to obtain plasma. The samples were stored in a freezer at −75 ± 15 °C prior to analysis. […] The final compound concentration was calculated by multiplying the detected concentration by a dilution factor of four.
Concentrations of the test compound in the plasma samples were determined using a Prominence LC-MS/MS system with a DGU-20A5R(C) degasser, LC-30AD pump, CBM-20A system controller, SIL-20AC HT autosampler; Rack changer II, HALO 90A ES-CN (2.7 μm, 2.1 × 50 mm) column, and AB Sciex Triple Quan 5500 LC/MS/MS instrument. […] After centrifugation at 4 °C and 4000 rpm for 15 min, the supernatant was diluted with ultrapure water at a ratio of 1:2 (v/v, 1:2), then 20 µL of diluted supernatant was injected into the LC/MS/MS system for quantitative analysis. […]

SMILES: CCC(=O)Nc1cc(Nc2cc(NC3CC3)n3ncc(C#N)c3n2)c(F)cc1N1CCC[C@H](NC)C1 [Compound 2, (S)-N-(5-((3-cyano-7-(cyclopropylamino)pyrazolo[1,5-a]pyrimidin-5-yl)amino)-4-fluoro-2-(3-(methylamino)piperidin-1-yl)phenyl)propionamide]
- CLint scaled at 5 μM [1]: 48.5 mL/min/kg
- free plasma Cpeak concentration (Multi-dose PK study): 120 to 190 nM

Source: PMC11397024, “Strategic Fluorination to Achieve a Potent, Selective, Metabolically Stable, and Orally Bioavailable Inhibitor of CSNK2” (Molecules, 2024)
